Data set [1] has as its target Nav1.6 (Homo sapiens, UniProt Q9UQD0).
Data set [2] deals with Nav1.1 (Homo sapiens, UniProt P35498).
For data set [3], the target named is Nav1.2 (Homo sapiens, UniProt Q99250).
The test system of data set [4] is cultured rat hippocampal neurons. The experiment in a line: Gramicidin perforated patch clamp in cultured hippocampal neurons. It counts as cell-based. The protocol: Referring to FIG. 9, representative IV curves were generated (current-voltage curves) to characterise the intrinsic excitability of TT0023831 and TT0042607 in gramicidin perforated patch clamp studies, and to investigate whether the effects of the three hit compounds identified in the above-described suppressor screens translate to rodent models. The effects of these compounds were evaluated in cultured rat hippocampal neurons using the gramicidin perforated patch technique. The GABAA agonist, muscimol (1 μM), was used to measure EGABA values under basal conditions (FIG. 9). Perfusion of 30 μM TT0011235 potentiated GABAA-mediated currents, both muscimol-activated and endogenous post-synaptic potentials, and shifted the EGABA values (FIG. 9 and Appendix B). […] Treatment with 30 μM TT0042607 slowed the upstroke and repolarization, reduced the input resistant and thus, and reduced the number of open channels.

Data set [5] concerns mouse maximal electroshock (MES) model. The experiment in a line: Mouse maximal electroshock (MES) model. It counts as in vivo. The conditions noted are these: animals protected from seizures / number tested. The protocol:
(§1) TT0023831 and TT0042607 were tested in mammalian models of epilepsy. The two compounds were tested in the mouse 6 Hz 44 mA model and the mouse maximal electroshock (MES) model. A range of doses was examined, and results were reported as the number of animals protected from seizures out of the number tested (Table 5).

Data set [6] relates to VU0463271-induced phenotype (KCC2 inhibition) in zebrafish larvae. The experiment in a line: animal or person. Here is the method:
To quantify the ability of the same drugs to reverse (or “rescue”) the phenotype caused by either 2.5 μM VU0463271 or 5 μM VU0240551, a rescue score between 0 (no rescue) and 1 (maximal theoretical rescue) was calculated (FIG. 2C). A rescue score incorporates and quantifies the degree of phenotypic reversal and the level of sedation in each concentration tested (see Materials and Methods below).
A diverse collection of 37,000 uncharacterized small molecules were used in a suppressor screen against either 2.5 μM VU0463271 (27,000 compounds) or 5 μM VU0240551 (10,000 compounds), along with 3,700 control wells treated with DMSO alone and 3,700 control wells treated with the KCC2 inhibitor. Each well of a 96-well plate containing at least about 8 zebrafish larvae was treated with a library compound or DMSO followed by treatment with the KCC2 inhibitor. Behavioral profiles pre- and post-treatment with the KCC2 inhibitor were evaluated using the behavioral assay battery described herein, and a detailed quantitative readout of about 15,000 time points was generated for each well. These behavioral profiles were used to calculate a screening score for each library compound, which incorporates and quantifies the rescue score and sedation index (see Materials and Methods).
In some cases, small molecules that alter the KCC2 inhibition phenotype may reverse the behavioral phenotype back to the normal, but could also elicit a new undesired phenotype, which is different from a normal behavior. To discriminate between these possibilities, vector algebra was used to compare each behavioral profile to the behavioral profile of DMSO-treated larvae and defined a value for the phenotypic distance from DMSO. The screen score of each compound was then plotted against its averaged phenotypic distance from DMSO (FIG. 3A) and MI (FIG. 3B) to filter out compounds that elicit a profile that is very different from the control one and compounds that reduce overall activity, respectively.
The reproducibility of the effects and the active concentration ranges of the 30 hits selected, as described above, were determined. Their rescue efficacies were retested in at least six concentrations and their rescue scores were also recalculated.
TT0023831 and six analogs were tested at a range of doses from 2.5-320 uM in a behavioral assay designed to assess the ability of compounds to suppress the effects of KCC2 inhibition. The graphs of FIG. 11 indicate the degree of suppression of the KCC2-inhibited phenotype, where a score of 1 represents complete restoration of KCC2-treated zebrafish to normal. […] Table 4 summarizes the estimated EC50 values and peak effect values for each compound.
A large number of fertilized zebrafish eggs (up to 20,000 embryos per day) were collected from group matings of wild type Ekkwill/Singapore zebrafish. Embryos were raised in hatching jars at 28° C. on a 14/10 hour light/dark cycle until 3 days post fertilization (dpf), then transferred to an incubator under the same conditions until 7 dpf. Groups of eight larvae (7 dpf) were distributed into the wells of a clear flat bottom square well 96-well plates filled with E3 medium (300 μl). Larvae were then incubated at 25° C. on the bench top for one-hour chemical treatment and subsequent experiments.
A library containing 37,000 uncharacterized small molecules was purchased from Life Chemicals and dissolved in DMSO at a stock concentration of 10 mM.

Data set [7] relates to PTZ-induced behavior in zebrafish larvae. The experiment in a line: Suppression of PTZ-induced behavior in zebrafish larvae. The class given is in vivo. The conditions noted are these: pre-treatment with 6 concentrations, then 5 mM PTZ. Here is the method: Differences between behavioral profiles of larval zebrafish treated with KCC2 inhibitors and larval zebrafish treated with PTZ were investigated by evaluating the ability of traditional anti-seizure drugs to reverse their effects. Five drugs in at least six concentrations (by allocating 12 wells per concentration) were tested. These drugs included a benzodiazepine anxiolytic (diazepam), two AEDs that increase GABA levels in the synapse (tiagabine and valproate), a sodium channel blocker (phenytoin) and a synthetic neurosteroid GABAA positive allosteric modulator (PAM, ganaxolone).

Data set [8] relates to mouse 6 Hz 44 mA model. Put plainly: Mouse 6 Hz 44 mA model of epilepsy. It counts as in vivo. The conditions noted are these: animals protected from seizures / number tested. The protocol:
as §1

The test system of data set [9] is VU0240551-induced phenotype (KCC2 inhibition) in zebrafish larvae.
The subject of data set [10] is zebrafish larvae. It counts as in vivo. The note with it: 5 mM. The text has this:
In an effort to determine how pharmacological inhibition of KCC2 affects zebrafish behaviors, 7 days post-fertilization (dpf) zebrafish larvae can be treated with two analogs of the selective KCC2 inhibitor, VU0463271 and VU0240551, and their behavioral responses in a battery of behavioral assays can be assessed. These behavioral assays can include a series of visual and acoustic stimuli presented to larval zebrafish in various contexts and combinations to elicit robust and reproducible patterns of activity. For example, behavioral assays can include two acoustic-stimulus-response (ASR1 and ASR2) assays, six visual-stimulus-response (VSR1-VSR6) assays, and three assays that combine acoustic and visual stimulus responses (AVSR1-AVSR3). Together, such a battery of behavioral assays use six stimuli, including red light (600 nm), blue light (420 nm), violet light (405 nm), green light (525 nm), low-intensity sound (60 dB) and high-intensity sound (70 dB). Behavioral responses of the larval zebrafish can be measured by a motion index (MI) that quantifies the motor activity of at least about 8 zebrafish larvae in each well of a 96-well plate.
Referring to FIGS. 1A-1B, zebrafish behavioral profiles can include a battery of individual behavioral assays labeled ASR1, AVSR1, ASR2, VSR1, VSR2, VSR3, VSR4, AVSR2, VSR5, AVSR3, and VSR6, as described herein. These behavioral assays can be combined to form a Motion Index (MI), which is a quantification of the motor activity of at least about 8 zebrafish larvae in each well of a 96-well plate. As shown in the representative images of FIGS. 1A-1B, zebrafish larvae were treated with DMSO (control), VU0463271 (FIG. 1A), or pentylentetrazol or PTZ (FIG. 1B).
Treatment with increasing doses of VU0463271 induced a unique and dose-dependent profile of behavioral responses, detectable at 2.5 μM and 5 μM. […] This relatively low concentration of VU0463271 elicited a reproducible behavioral profile with altered sensitivity of the fish larvae to specific combinations of stimuli. […] The increased MI in the AVSR1 and AVSR3 assays due to VU0463271 treatment reflects a seizure-like hyperexcitability in the larval fish.
Additionally, seizures have been induced in 7 dpf zebrafish larvae using pentylentetrazol (PTZ) treatment, and motor and electroencephalographic (EEG) responses were consistent with seizure phenotypes.

Where [11] appears, read: 10-point CRC, TT002381 to a maximum of 100 μM.

This note sets out measurements from US20180161310A1, “COMPOUNDS AND METHODS FOR THE TREATMENT OF NEUROLOGICAL DISORDERS” (Teleos Therapeutics, LLC, priority 2016, published 2018).

Like-named read-outs stand apart in the source and are kept apart here.

Sequence of Nav1.6 (Q9UQD0 whole entry): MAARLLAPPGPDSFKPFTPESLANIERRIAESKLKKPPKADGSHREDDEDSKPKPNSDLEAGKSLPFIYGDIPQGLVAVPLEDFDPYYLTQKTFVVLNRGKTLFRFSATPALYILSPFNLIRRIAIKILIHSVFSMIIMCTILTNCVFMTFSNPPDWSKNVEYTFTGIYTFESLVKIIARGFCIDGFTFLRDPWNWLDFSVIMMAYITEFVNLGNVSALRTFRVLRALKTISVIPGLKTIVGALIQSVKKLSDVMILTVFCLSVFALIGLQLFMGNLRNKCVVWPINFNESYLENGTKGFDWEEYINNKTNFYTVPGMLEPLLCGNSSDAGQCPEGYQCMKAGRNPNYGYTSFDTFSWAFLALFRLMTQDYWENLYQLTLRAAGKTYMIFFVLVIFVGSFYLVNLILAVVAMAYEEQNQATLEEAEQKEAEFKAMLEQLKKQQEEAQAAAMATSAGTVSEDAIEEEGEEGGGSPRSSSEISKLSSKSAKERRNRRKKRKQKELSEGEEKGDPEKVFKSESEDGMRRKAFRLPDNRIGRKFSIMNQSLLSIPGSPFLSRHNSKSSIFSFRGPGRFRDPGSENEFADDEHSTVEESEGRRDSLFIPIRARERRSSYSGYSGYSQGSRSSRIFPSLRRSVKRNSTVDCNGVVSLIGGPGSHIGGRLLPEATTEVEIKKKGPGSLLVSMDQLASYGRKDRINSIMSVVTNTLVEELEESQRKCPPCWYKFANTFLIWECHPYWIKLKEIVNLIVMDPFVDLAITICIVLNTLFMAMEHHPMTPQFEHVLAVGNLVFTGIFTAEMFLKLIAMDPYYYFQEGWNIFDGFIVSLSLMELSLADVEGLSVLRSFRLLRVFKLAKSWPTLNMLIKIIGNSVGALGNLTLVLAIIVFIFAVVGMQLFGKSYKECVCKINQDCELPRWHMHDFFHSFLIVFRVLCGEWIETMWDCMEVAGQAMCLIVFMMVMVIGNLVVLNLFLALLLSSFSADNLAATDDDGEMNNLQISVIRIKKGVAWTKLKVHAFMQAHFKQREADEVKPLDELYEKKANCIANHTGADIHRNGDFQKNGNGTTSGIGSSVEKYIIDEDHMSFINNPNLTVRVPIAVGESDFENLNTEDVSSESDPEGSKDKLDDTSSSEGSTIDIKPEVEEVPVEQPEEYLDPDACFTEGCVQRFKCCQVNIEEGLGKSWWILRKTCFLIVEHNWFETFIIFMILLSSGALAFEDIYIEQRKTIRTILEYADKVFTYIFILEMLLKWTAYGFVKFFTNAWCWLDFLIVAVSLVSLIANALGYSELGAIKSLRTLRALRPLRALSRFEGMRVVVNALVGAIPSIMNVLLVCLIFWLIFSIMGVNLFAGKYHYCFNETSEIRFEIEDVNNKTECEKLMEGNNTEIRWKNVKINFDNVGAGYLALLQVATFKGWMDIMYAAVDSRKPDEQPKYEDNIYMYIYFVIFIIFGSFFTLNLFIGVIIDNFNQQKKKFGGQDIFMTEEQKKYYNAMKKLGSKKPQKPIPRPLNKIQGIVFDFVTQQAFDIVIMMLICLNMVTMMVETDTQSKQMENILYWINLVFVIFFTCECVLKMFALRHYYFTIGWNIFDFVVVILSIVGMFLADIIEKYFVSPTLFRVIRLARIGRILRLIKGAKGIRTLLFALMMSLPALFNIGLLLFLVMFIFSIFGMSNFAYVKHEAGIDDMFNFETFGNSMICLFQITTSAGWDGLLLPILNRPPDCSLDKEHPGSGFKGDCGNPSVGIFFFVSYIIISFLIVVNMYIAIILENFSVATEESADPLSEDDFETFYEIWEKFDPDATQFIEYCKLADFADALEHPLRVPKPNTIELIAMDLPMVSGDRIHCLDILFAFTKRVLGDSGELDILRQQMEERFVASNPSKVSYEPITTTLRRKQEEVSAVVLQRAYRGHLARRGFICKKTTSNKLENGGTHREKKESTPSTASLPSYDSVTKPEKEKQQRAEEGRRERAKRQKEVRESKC
Sequence of Nav1.2 (Q99250 whole entry, the tested form may be a part): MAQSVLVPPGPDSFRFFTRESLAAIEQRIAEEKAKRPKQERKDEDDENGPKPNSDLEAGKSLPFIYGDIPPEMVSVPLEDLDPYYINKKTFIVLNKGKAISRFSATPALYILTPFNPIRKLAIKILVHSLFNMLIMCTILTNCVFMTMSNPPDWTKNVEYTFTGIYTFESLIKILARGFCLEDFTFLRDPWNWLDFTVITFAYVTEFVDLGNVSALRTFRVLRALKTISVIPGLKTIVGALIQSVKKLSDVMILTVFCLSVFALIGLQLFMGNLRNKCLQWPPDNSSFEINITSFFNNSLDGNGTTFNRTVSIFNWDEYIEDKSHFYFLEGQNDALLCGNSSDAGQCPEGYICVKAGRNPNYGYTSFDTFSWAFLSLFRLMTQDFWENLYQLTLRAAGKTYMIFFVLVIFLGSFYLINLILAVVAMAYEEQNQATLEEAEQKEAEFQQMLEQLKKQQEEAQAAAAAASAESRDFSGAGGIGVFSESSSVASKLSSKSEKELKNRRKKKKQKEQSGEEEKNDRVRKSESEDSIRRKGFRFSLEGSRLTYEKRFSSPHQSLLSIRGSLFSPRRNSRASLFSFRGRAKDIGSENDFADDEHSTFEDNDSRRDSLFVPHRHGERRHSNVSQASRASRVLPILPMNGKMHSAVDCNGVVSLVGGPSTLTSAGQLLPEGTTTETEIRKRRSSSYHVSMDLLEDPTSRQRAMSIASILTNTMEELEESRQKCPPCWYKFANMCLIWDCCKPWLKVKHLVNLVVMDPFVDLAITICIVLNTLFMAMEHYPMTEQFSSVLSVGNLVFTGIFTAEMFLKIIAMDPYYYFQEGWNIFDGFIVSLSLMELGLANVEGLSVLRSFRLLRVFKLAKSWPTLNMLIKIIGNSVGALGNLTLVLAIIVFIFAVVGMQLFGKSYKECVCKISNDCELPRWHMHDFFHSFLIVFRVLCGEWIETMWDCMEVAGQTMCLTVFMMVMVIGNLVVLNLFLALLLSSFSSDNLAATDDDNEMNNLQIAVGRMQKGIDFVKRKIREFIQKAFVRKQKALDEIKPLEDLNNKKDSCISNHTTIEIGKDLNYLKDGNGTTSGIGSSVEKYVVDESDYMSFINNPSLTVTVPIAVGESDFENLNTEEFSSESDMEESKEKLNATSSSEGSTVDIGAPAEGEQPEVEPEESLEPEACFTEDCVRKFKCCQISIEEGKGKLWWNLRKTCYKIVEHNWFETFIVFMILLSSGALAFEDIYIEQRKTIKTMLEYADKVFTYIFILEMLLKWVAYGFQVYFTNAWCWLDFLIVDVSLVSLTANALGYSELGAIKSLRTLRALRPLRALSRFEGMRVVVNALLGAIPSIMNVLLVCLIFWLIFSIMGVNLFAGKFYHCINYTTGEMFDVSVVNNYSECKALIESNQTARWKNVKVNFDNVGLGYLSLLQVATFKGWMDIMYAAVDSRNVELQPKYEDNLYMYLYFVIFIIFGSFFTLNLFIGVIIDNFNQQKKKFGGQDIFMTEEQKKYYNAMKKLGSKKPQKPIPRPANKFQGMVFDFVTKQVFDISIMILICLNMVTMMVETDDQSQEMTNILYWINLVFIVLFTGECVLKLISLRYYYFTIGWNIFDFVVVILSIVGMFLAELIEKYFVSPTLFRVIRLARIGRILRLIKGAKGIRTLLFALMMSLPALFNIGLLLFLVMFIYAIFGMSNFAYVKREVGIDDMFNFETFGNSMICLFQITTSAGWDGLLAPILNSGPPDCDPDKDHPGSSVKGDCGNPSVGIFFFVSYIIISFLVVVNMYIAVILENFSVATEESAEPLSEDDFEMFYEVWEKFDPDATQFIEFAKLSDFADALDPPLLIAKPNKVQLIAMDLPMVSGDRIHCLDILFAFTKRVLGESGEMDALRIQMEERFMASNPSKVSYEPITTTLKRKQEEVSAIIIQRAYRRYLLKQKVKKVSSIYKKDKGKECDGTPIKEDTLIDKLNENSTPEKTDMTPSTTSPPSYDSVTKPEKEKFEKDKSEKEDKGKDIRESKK

Take `CCCCNc1ccc(C(=O)OCCN(C)C)cc1` [tetracaine]: the “inhibition of Nav1.6” value in data set [1] (setting [11]) is on record as “concentration-dependent inhibition”. Further, the “inhibition of Nav1.1” value in [2] (setting [11]) was “concentration-dependent inhibition”. In addition, in [3] (setting [11]), the “inhibition of Nav1.2” value was “concentration-dependent inhibition”.

With `CCCOc1nn(CCC)cc1C(=O)Nc1ccc(C(F)(F)F)cc1` [TT0042607, 3-propoxy-1-propyl-N-(4-(trifluoromethyl)phen-yl)-1H-pyrazole-4-carboxamide], in [4], the “effect on GABAA-mediated currents” value is listed as “neither TT0023831 nor TT0042607 appeared to have an effect”, the “firing rates of the cultured neurons” value was “reduced the firing rates” and the spike initiation result is on record as “delayed spike initiation”. Moreover, in data set [4] (30 μM), the input resistant entry is reported as “reduced”; the “number of open channels (open at rest)” value is on record as “reduced”; the upstroke and repolarization entry is recorded as “slowed”. Also, the “Rescued (MES model)” value in data set [5] (10 mg/kg) is given as 0/4. In [5] (30 mg/kg), the “Rescued (MES model)” value is 0/4. Besides, the “Rescued (MES model)” value in data set [5] (100 mg/kg) is on record as 2/4. For the same compound, the “effect on the overall MI” value in data set [6] (sub-micromolar or higher concentrations (tested 0.08-2.5 μM)) is on record as “no effect”. Besides, in data set [6] (tested at 0.08-2.5 μM, already at sub-micromolar concentrations), the “rescue of VU0463271-induced behaviors” value is “rescued”. In addition, the “suppression score dose response compared with other compounds as suppressor of the hyperexcitability phenotype” value in [6] (zebrafish, FIG. 8 / FIG. 10) was “outperform both tiagabine and valproic acid”. In data set [7], the “suppression of PTZ-induced hyperactivity in response to the different stimuli” value is on record as “attenuated”. In addition, the “Rescued (6 Hz model)” value in data set [8] (10 mg/kg) is listed as 0/4. Moreover, the “Rescued (6 Hz model)” value in data set [8] (30 mg/kg) is 0/4. For the same compound, the “Rescued (6 Hz model)” value in [8] (100 mg/kg) was 1/4.

As to `Cc1ccc(-c2nc(N3CCOCC3)sc2C(=O)NCC2CCCO2)cc1` (centres unmarked) [TT0011235], in data set [4] (perfusion of 30 μM), the EGABA values entry was “shifted”; the “GABAA-mediated currents (muscimol-activated and endogenous post-synaptic potentials)” value is “potentiated”. In addition, the “suppression of PTZ-induced hyperactivity in response to the different stimuli” value in data set [7] is recorded as “attenuated”. Besides, the “effect on overall MI” value in data set [9] (at concentrations higher than 20 μM) is listed as “inhibitory effect”. Further, in data set [9] (tested at 2.5-80 μM), the “concentration of most effective phenotypic reversal” value stood at 20 µM and the “rescue of VU0240551-induced behaviors” value is on record as “rescued”.

With `C1CCc2nnnn2CC1` [PTZ, pentylentetrazol], the “activity and MI in response to multiple light and acoustic stimuli” value in [10] is given as “induced hyperactivity”.

As for `NC1=N[C@H](O)[C@H]2[C@H]3O[C@]4(O)O[C@@H]([C@@H](O)[C@@]2(N1)[C@@H]4O)[C@]3(O)CO` [TTX, tetrodotoxin], the “inhibition of Nav1.6” value in [1] is on record as “concentration-dependent inhibition”. In [2], the “inhibition of Nav1.1” value is reported as “concentration-dependent inhibition”. For the same compound, in data set [3], the “inhibition of Nav1.2” value is recorded as “concentration-dependent inhibition”.
